Structures can show the parent of a compound that is named as a salt.
Tests used:
[1] = molecular target: T1, histamine H3 receptor (Homo sapiens, UniProt Q9Y5N1); test: Histamine H3 functional antagonist assay (method B); assay type: biochemical; conditions: [35S]-GTPγS SPA, membrane prepared from cultured H3 cells, histamine at EC80, averages of a number of experiments, read-out: functional pKi (fpKi), antagonism (converted)
T1 construct: expressed in transfected cells; host or cells: CHO K1 cells (pSwitch/pGene GeneSwitch system, mifepristone-induced), clone 3H3; membranes
T1 sequence (Q9Y5N1 whole entry): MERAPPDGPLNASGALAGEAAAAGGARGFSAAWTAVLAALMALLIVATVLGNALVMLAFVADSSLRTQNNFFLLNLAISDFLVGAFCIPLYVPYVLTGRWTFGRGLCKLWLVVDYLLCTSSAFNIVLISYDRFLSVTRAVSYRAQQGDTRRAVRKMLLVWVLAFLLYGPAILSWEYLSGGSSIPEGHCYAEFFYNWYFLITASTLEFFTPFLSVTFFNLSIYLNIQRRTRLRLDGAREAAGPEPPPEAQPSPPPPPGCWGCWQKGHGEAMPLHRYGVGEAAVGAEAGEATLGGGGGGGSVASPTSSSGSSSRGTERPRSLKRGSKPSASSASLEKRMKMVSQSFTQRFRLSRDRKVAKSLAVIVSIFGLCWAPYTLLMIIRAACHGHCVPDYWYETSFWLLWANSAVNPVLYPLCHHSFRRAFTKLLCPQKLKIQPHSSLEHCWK
Text: (§1) A membrane preparation containing histamine H3 receptors may be prepared in accordance with the following procedures:
(§2) (i) Generation of Histamine H3 Cell Line
(§3) DNA encoding the human histamine H3 gene (Huvar, A. et al. (1999) Mol. Pharmacol. 55(6), 1101-1107) was cloned into a holding vector, pcDNA3.1 TOPO (InVitrogen) and its cDNA was isolated from this vector by restriction digestion of plasmid DNA with the enzymes BamH1 and Not-1 and ligated into the inducible expression vector pGene (InVitrogen) digested with the same enzymes. The GeneSwitch™ system (a system where in transgene expression is switched off in the absence of an inducer and switched on in the presence of an inducer) was performed as described in U.S. Pat. Nos. 5,364,791; 5,874,534; and 5,935,934. Ligated DNA was transformed into competent DH5α E. coli host bacterial cells and plated onto Luria Broth (LB) agar containing Zeocin™ (an antibiotic which allows the selection of cells expressing the sh ble gene which is present on pGene and pSwitch) at 50 μg ml^−1. Colonies containing the re-ligated plasmid were identified by restriction analysis. DNA for transfection into mammalian cells was prepared from 250 ml cultures of the host bacterium containing the pGeneH3 plasmid and isolated using a DNA preparation kit (Qiagen Midi-Prep) as per manufacturers guidelines (Qiagen).
(§4) CHO K1 cells previously transfected with the pSwitch regulatory plasmid (InVitrogen) were seeded at 2×10e6 cells per T75 flask in Complete Medium, containing Hams F12 (GIBCOBRL, Life Technologies) medium supplemented with 10% v/v dialysed foetal bovine serum, L-glutamine, and hygromycin (100 μg ml^−1), 24 hours prior to use. Plasmid DNA was transfected into the cells using Lipofectamine plus according to the manufacturers guidelines (InVitrogen). 48 hours post transfection cells were placed into complete medium supplemented with 500 μg ml^−1 Zeocin™.
(§5) 10-14 days post selection 10 nM Mifepristone (InVitrogen), was added to the culture medium to induce the expression of the receptor. 18 hours post induction cells were detached from the flask using ethylenediamine tetra-acetic acid (EDTA; 1:5000; InVitrogen), following several washes with phosphate buffered saline pH 7.4 and resuspended in Sorting Medium containing Minimum Essential Medium (MEM), without phenol red, and supplemented with Earles salts and 3% Foetal Clone II (Hyclone). Approximately 1×10e7 cells were examined for receptor expression by staining with a rabbit polyclonal antibody, 4a, raised against the N-terminal domain of the histamine H3 receptor, incubated on ice for 60 minutes, followed by two washes in sorting medium. Receptor bound antibody was detected by incubation of the cells for 60 minutes on ice with a goat anti rabbit antibody, conjugated with Alexa 488 fluorescence marker (Molecular Probes). Following two further washes with Sorting Medium, cells were filtered through a 50 μm Filcon™ (BD Biosciences) and then analysed on a FACS Vantage SE Flow Cytometer fitted with an Automatic Cell Deposition Unit. Control cells were non-induced cells treated in a similar manner. Positively stained cells were sorted as single cells into 96-well plates, containing Complete Medium containing 500 μg ml^−1 Zeocin™ and allowed to expand before reanalysis for receptor expression via antibody and ligand binding studies. One clone, 3H3, was selected for membrane preparation.
(ii) Membrane Preparation from Cultured Cells
All steps of the protocol are carried out at 4° C. and with pre-cooled reagents. The cell pellet is resuspended in 10 volumes of homogenisation buffer (50 mM N-2-hydroxyethylpiperazine-N′-2-ethanesulfonic acid (HEPES), 1 mM ethylenediamine tetra-acetic acid (EDTA), pH 7.4 with KOH, supplemented with 10e-6M leupeptin (acetyl-leucyl-leucyl-arginal; Sigma L2884), 25 μg/ml bacitracin (Sigma B0125), 1 mM phenylmethylsulfonyl fluoride (PMSF) and 2×10e-6M pepstain A (Sigma)). […]

[2] = molecular target: T1, histamine H3 receptor; test: Histamine H3 functional antagonist assay (method A); assay type: biochemical; conditions: [35S]-GTPγS SPA, membrane prepared from cultured H3 cells, histamine at EC80, averages of a number of experiments, read-out: functional pKi (fpKi), antagonism (converted)
Text: as §1, §2, §3, §4, §5
(ii) Membrane Preparation from Cultured Cells […]

| Structure (SMILES) | Ki [1] | Ki [2] |
| --- | --- | --- |
| O=C(C1CCN(c2ccc(C(F)(F)F)nc2)C1)N1CCCN(C2CCC2)CC1 (racemic) [Example E17, (R,S)-1-Cyclobutyl-4-({1-[6-(trifluoromethyl)-3-pyridinyl]-3-pyrrolidinyl}carbonyl)hexahydro-1H-1,4-diazepine] | ≤ 0.316 nM | < 0.316 nM |
| O=C([C@H]1CCN(c2ccc(C(F)(F)F)nc2)C1)N1CCCN(C2CCC2)CC1 (single isomer, unassigned) [Example E17B, hydrochloride] | – | < 0.316 nM |
| Cc1nc(-c2ccc(N3CC[C@H](C(=O)N4CCN(C(C)C)CC4)C3)cc2)co1 [Example E32A, 1-(1-Methylethyl)-4-({(3S)-1-[4-(2-methyl-1,3-oxazol-4-yl)phenyl]-3-pyrrolidinyl}carbonyl)piperazine] | ≤ 0.316 nM | – |
| Cc1ncc(-c2ccc(N3CC[C@H](C(=O)N4CCN(C(C)C)CC4)C3)cc2)o1 [Example E34, 1-(1-Methylethyl)-4-({(3S)-1-[4-(2-methyl-1,3-oxazol-5-yl)phenyl]-3-pyrrolidinyl}carbonyl)piperazine] | ≤ 0.316 nM | – |
| CC(C)N1CCN(C(=O)[C@H]2CCN(c3ccc(-c4nnc(-c5ccccc5)o4)cc3)C2)CC1 [Example E40, 1-(1-Methylethyl)-4-({(3S)-1-[4-(5-phenyl-1,3,4-oxadiazol-2-yl)phenyl]-3-pyrrolidinyl}carbonyl)piperazine] | ≤ 0.316 nM | – |
| CCc1noc(-c2ccc(N3CC[C@H](C(=O)N4CCN(C(C)C)CC4)C3)cc2)n1 [Example E49, 1-({(3S)-1-[4-(3-Ethyl-1,2,4-oxadiazol-5-yl)phenyl]-3-pyrrolidinyl}carbonyl)-4-(1-methylethyl)piperazine hydrochloride] | ≤ 0.316 nM | – |
| Cc1noc(-c2ccc(N3CC[C@H](C(=O)N4CCN(C5CCC5)CC4)C3)cc2F)n1 [Example E52, 1-Cyclobutyl-4-({(3S)-1-[3-fluoro-4-(3-methyl-1,2,4-oxadiazol-5-yl)phenyl]-3-pyrrolidinyl}carbonyl)piperazine hydrochloride] | ≤ 0.316 nM | – |
| Cc1cn(-c2ccc(N3CC[C@H](C(=O)N4CCN(C(C)C)CC4)C3)cc2)cn1 [Example E55, 1-(1-Methylethyl)-4-({(3S)-1-[4-(4-methyl-1H-imidazol-1-yl)phenyl]-3-pyrrolidinyl}carbonyl)piperazine dihydrochloride] | ≤ 0.316 nM | – |
| Cc1noc(-c2ccc(N3CC[C@H](C(=O)N4CCCN(CC5CC5)CC4)C3)cn2)n1 [Example E58, hydrochloride] | ≤ 0.316 nM | – |

Now from value to compound:

| Ki [1] | Ki [2] | Structure (SMILES) |
| --- | --- | --- |
| – | < 10 nM | CC(C)N1CCCN(C(=O)C2CCN(c3ccc(C(F)(F)F)nc3)C2)CC1 (racemic) [Example E22, (R,S)-1-(1-Methylethyl)-4-({(1-[6-(trifluoromethyl)-3-pyridinyl]-3-pyrrolidinyl}carbonyl)hexahydro-1H-1,4-diazepine hydrochloride] |
| – | < 0.316 nM | O=C(C1CCN(c2ccnc(C(F)(F)F)c2)C1)N1CCCN(C2CCC2)CC1 (racemic) [Example E23, (R,S)-1-Cyclobutyl-4-({1-[2-(trifluoromethyl)-4-pyridinyl]-3-pyrrolidinyl}carbonyl)hexahydro-1H-1,4-diazepine hydrochloride] |
| – | < 0.316 nM | O=C([C@@H]1CCN(c2ccc(C(F)(F)F)nc2)C1)N1CCCN(C2CCC2)CC1 (single isomer, unassigned) [Example E17A, hydrochloride] |
| ≤ 0.316 nM | – | Cc1nc(-c2ccc(N3CC[C@H](C(=O)N4CCN(C(C)C)CC4)C3)cc2)no1 [Example E33, 1-(1-Methylethyl)-4-({(3S)-1-[4-(5-methyl-1,2,4-oxadiazol-3-yl)phenyl]-3-pyrrolidinyl}carbonyl)piperazine] |
| ≤ 0.316 nM | – | CC(C)N1CCN(C(=O)[C@H]2CCN(c3ccc(C#N)cc3)C2)CC1 [Example E36, 4-((3S)-3-{[4-(1-Methylethyl)-1-piperazinyl]carbonyl}-1-pyrrolidinyl)benzonitrile hydrochloride] |
| ≤ 0.316 nM | – | CC(C)N1CCN(C(=O)[C@H]2CCN(c3ccc(-c4ccno4)cc3)C2)CC1 [Example E41, 1-({(3S)-1-[4-(5-isoxazolyl)phenyl]-3-pyrrolidinyl}carbonyl)-4-(1-methylethyl)piperazine] |
| ≤ 0.316 nM | – | CC(C)N1CCN(C(=O)[C@H]2CCN(c3ccc(-n4ccnc4)cc3)C2)CC1 [Example E43, 1-({(3S)-1-[4-(1H-imidazol-1-yl)phenyl]-3-pyrrolidinyl}carbonyl)-4-(1-methylethyl)piperazine] |
| ≤ 0.316 nM | – | Cc1nnc(-c2ccc(N3CC[C@H](C(=O)N4CCCN(C(C)C)CC4)C3)cc2)o1 [Example E47, 1-(1-Methylethyl)-4-({(3S)-1-[4-(5-methyl-1,3,4-oxadiazol-2-yl)phenyl]-3-pyrrolidinyl}carbonyl)hexahydro-1H-1,4-diazepine hydrochloride] |
| ≤ 0.316 nM | – | CCc1noc(-c2ccc(N3CC[C@H](C(=O)N4CCCN(C(C)C)CC4)C3)cc2)n1 [Example E48, 1-({(3S)-1-[4-(3-Ethyl-1,2,4-oxadiazol-5-yl)phenyl]-3-pyrrolidinyl}carbonyl)-4-(1-methylethyl)hexahydro-1H-1,4-diazepine hydrochloride] |
| ≤ 0.316 nM | – | Cc1noc(-c2ccc(N3CC[C@H](C(=O)N4CCN(C5CCC5)CC4)C3)cn2)n1 [Example E51, 1-Cyclobutyl-4-({(3S)-1-[6-(3-methyl-1,2,4-oxadiazol-5-yl)-3-pyridinyl]-3-pyrrolidinyl}carbonyl)piperazine hydrochloride] |
| ≤ 0.316 nM | – | Cc1noc(-c2ccc(N3CC[C@H](C(=O)N4CCCN(C(C)C)CC4)C3)cn2)n1 [Example E53, 1-(1-Methylethyl)-4-({(3S)-1-[6-(3-methyl-1,2,4-oxadiazol-5-yl)-3-pyridinyl]-3-pyrrolidinyl}carbonyl)hexahydro-1H-1,4-diazepine hydrochloride] |
| ≤ 0.316 nM | – | Cc1noc(-c2ccc(N3CC[C@H](C(=O)N4CCN(C(C)C)CC4)C3)cn2)n1 [Example E54, 1-(1-Methylethyl)-4-({(3S)-1-[6-(3-methyl-1,2,4-oxadiazol-5-yl)-3-pyridinyl]-3-pyrrolidinyl}carbonyl)piperazine hydrochloride] |
